The source of these data is patent publication US20150321164A1, “METHOD FOR SYNTHESIZING AND SCREENING LEAD COMPOUND AND REAGENT TESTING KIT” (HITGEN LTD., priority 2012, published 2015).

This assay addresses T1, trypsin (Bos taurus, UniProt P00760).
T1 sequence (P00760 24-246): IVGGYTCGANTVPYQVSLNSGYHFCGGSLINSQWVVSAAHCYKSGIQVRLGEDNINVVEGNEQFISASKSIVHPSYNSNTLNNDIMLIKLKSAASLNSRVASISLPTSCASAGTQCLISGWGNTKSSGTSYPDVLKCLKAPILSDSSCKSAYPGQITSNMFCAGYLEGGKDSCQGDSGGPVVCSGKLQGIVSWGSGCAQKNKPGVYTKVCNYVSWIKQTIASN
Description: trypsin enzyme inhibition activity. The format is biochemical. The following applies: enzyme inhibition activity of the resynthesized screened compound, FIGS. 4-5. Here is the method: According to the structural formula, the compound is tested at the end of synthesis.

Molecules are shown by their SMILES.

The term IC50 denotes the concentration needed to halve the response being measured. Lower therefore signals higher potency. The compound `C[C@H](NC(=O)[C@H](CNC(=O)Cc1ccc2ccccc2c1)NS(=O)(=O)c1ccccc1)C(=O)NCc1ccc(C(=N)N)cc1` came in with an IC50 of 8.1 ± 2.1 nM.
